Data taken from patent publication US9618507B2, “Methods of treating rheumatoid arthritis” (Betanien Hospital, priority 2014, dated 2017).
Where a SMILES comes first, the peptide text is derived from it. [ ]: non-standard residue; d: D form. dPhe(4-Cl) = N[C@H](Cc1ccc(Cl)cc1)C(=O)O; d2Nal = N[C@H](Cc1ccc2ccccc2c1)C(=O)O; dCit = NC(=O)NCCC[C@@H](N)C(=O)O; d3Pal = N[C@H](Cc1cccnc1)C(=O)O

Columns and labels:
Assay type in all cases: in vivo, human
[1] = test system: RA patients; test: Example 1: randomized, double-blind, placebo-controlled study, disease activity (DAS28-CRP, ACR responses, core set measures)
Protocol: In this randomized, double-blind, placebo-controlled, single-centre study, males and females aged ≧18 years with RA according to the 1987 revised American College of Rheumatology (ACR) criteria, and with a 28-joint Disease Activity Score based on C-reactive protein (DAS28-CRP)>3.2 were enrolled.
(§1) Ethical committee approval was obtained. […] Safety and efficacy visits, with blood sampling, were between 0730 and 0930 h on days 1 (baseline), 2, 3, 4, 5 (visit 5a), 10, and 15. There was an additional visit (visit 5b) between 1930 and 2130 h when maximum GnRH suppression was anticipated.
Predefined secondary end-points included the baseline adjusted between-group difference inTNF-α, ACR20/50/70 responses, European League Against Rheumatism (EULAR) responses, DAS28-CRP <2.6 and ≦3.2, and adverse events.
Menstruating women could only enter the study in the early follicular phase of their menstrual cycle. The concomitant use of stable doses of disease-modifying anti-rheumatic drugs (DMARDs) for at least 8 weeks, stable prednisolone ≦7.5 mg daily for at least 4 weeks, and stable non-steroidal anti-inflammatory drugs (NSAIDs) for at least 2 weeks was allowed if these doses were continued throughout the study. Key exclusion criteria were as follows: pregnancy or breastfeeding females; corticosteroid injections within the trial or 4 weeks prior to screening; biological agents were not permitted during the trial or within 4 weeks prior to inclusion in the trial (with the exception of infliximab or adalimumab which were not permitted within 3 months prior to inclusion in the trial; and rituximab which was not permitted within 6 months prior to inclusion in the trial). A history of hormone-dependent cancers ever or non-hormone-dependent cancers within 5 years prior to screening: infections requiring intravenous antibiotic treatment within 30 days, or oral antibiotics within 14 days prior to enrolment; significant renal or hepatic impairment; and any treatment with hormone replacement therapy or oral contraception were also exclusion criteria.
The Newcombe hybrid score interval was used to estimate 95% confidence intervals (CI) for the difference between proportions (Fagerland M W, et al., Stat Methods Med Res 2011). No adjustments for multiple analyses were made, owing to the highly correlated variables. All clinical, biochemical, and safety data were analyzed by an intention-to-treat analysis. Only predefined endpoints are presented. The intention-to-treat population was predefined in the protocol as all randomized patients who received any injections of study drug. Missing values were <1% and could, as predefined, be imputed with the last observation carried forward. The assumptions of normality needed for analyses were approximately valid. The Spearman rank correlation coefficient (Spearman's rho) was used to estimate the association between pairs of continuous variables.

[2] = test system: RA patients with high gonadotropin levels; test: Example 2: AGRA post hoc analyses in patients with high gonadotropin levels, disease activity (DAS28-CRP, ACR, EULAR)
Excerpt: Post hoc analyses is described herein.
Key inclusion criteria for AGRA were males or females aged ≧18 years with RA that had been diagnosed on the basis of the American College of Rheumatology (ACR) 1987 revised criteria (Arnett F C, et al., Arthritis Rheum 1988; 31:315-24); with active, and moderate or severe disease defined as a Disease Activity Score for 28-joint counts based on C-reactive protein (Wells G, et al., Ann Rheum Dis 2009; 68:954-60) (DAS28-CRP) >3.2 and at least two of the following criteria: ≧6 painful joints, ≧3 swollen joints, ESR ≧20 mm/h, and a C-reactive protein ≧10 mg/L). Prednisolone ≦7.5 mg/day was permitted if stable for at least 4 weeks prior to baseline; NSAIDs were permitted if stable for at least 2 weeks prior to baseline; and disease-modifying anti-rheumatic drugs (DMARDs) were permitted if stable for at least 8 weeks prior to baseline. Tumour necrosis factor-α (TNF-α) inhibitor or other biological agents were not permitted during the trial or within 4 weeks prior to inclusion. Infliximab/adalimumab was not permitted at least 3 months prior to inclusion; Rituximab was not permitted at least 6 months prior to inclusion. Intramuscular, intra-articular or intravenous corticosteroids; any hormone replacement therapy; or oral contraception was not permitted during the trial or within 4 weeks prior to inclusion.
In these post hoc analyses, a subgroup of AGRA patients with high gonadotropin levels were examined. There is no established cut-off for high LH and/or FSH. Therefore, levels above the median were defined as high (e.g., LH>17.3 IU/L and FSH>34.6 IU/L).
(§2) The intention-to-treat population was predefined as all randomised patients who received any study-drug injections. Missing values were <1% and could, as predefined, be imputed with the last-observation-carried-forward. The assumptions of normality needed for analyses were approximately valid. All statistical tests were two-sided (α=0.05) and performed with Stata 12 and StatXact 9. Analyses were performed by an offsite statistician who received locked databases from blinded investigators and laboratories, and the allocation key from the offsite central office.

[3] = test system: LH, FSH, cortisol; test: Example 1: serum hormone assays (LH, FSH, cortisol)
Protocol: as §1
Non-competitive immunofluorometric assays were used for the quantitative determination of serum LH and FSH (Dissociation Enhanced Lanthanide Fluoroimmunoassay [DELFIA] kit, Turku, Finland). A competitive immunofluorometric assay was used for the determination of serum oestradiol (DELFIA kit, Turku, Finland). A competitive radioimmunoassay was used for the quantitative determination of serum testosterone (Orion Diagnostica. Espoo, Finland). A competitive Iuminoimmunoassay was used for the quantitative determination of serum cortisol (Immulite 2000, California, USA).

[4] = test system: RA patients with high gonadotropin levels; test: Example 2: adverse events in high gonadotropin patients
Protocol: as §2

[5] = high gonadotropin patients, by day 5, placebo 0%

**Q.** How did the “DAS28-CRP between-group difference vs placebo” value ([1]; all patients, baseline adjusted, day 5, 95% CI −0.04 to 0.57, p 0.091) turn out when CC(=O)N[C@H](Cc1ccc2ccccc2c1)C(=O)N[C@H](Cc1ccc(Cl)cc1)C(=O)N[C@H](Cc1cccnc1)C(=O)N[C@@H](CO)C(=O)N[C@@H](Cc1ccc(O)cc1)C(=O)N[C@H](CCCNC(N)=O)C(=O)N[C@@H](CC(C)C)C(=O)N[C@@H](CCCNC(=N)N)C(=O)N1CCC[C@H]1C(=O)N[C@H](C)C(N)=O [cetrorelix] (Ac-[d2Nal][dPhe(4-Cl)][d3Pal]SY[dCit]LRP[dA]-NH2) was run?
**A.** 0.26

**Q.** What about the “patients achieving DAS28-CRP<2.6” value ([1]; all patients, by day 5, placebo 0%) of the same molecule?
**A.** 13%

**Q.** What about the “patients achieving ACR20 responses” value ([1]; all patients, by day 5, placebo 18%) of the same molecule?
**A.** 40%

**Q.** What about the “DAS28-CRP reduction by day 5” value ([1]; all patients, cetrorelix n=48, 5 mg/day s.c. days 1-2, 3 mg/day days 3-5, day 5) of the same molecule?
**A.** 0.82

**Q.** What about the “ACR50/70 responses compared with placebo” value ([1]; all patients, day 5, FIG. 1A) of the same molecule?
**A.** More patients reached ACR50/70 responses

**Q.** And the “core set measures of disease activity compared with placebo” value ([1]; all patients, except physician global assessment)?
**A.** non-significant greater improvements

**Q.** And the “DAS28-CRP reduction, prednisolone users (n 24) vs non-users (n 24)” value ([1]; cetrorelix group, p 0.40)?
**A.** did not differ

**Q.** And the “reductions of DAS28-CRP and cytokines compared to placebo, high gonadotropin groups (N=53) versus the rest of the AGRA population (N=46)” value ([2]; FIG. 5B-E)?
**A.** greater reductions

**Q.** And the “patients achieving DAS28-CRP<2.6” value [2, 5]?
**A.** 15%

**Q.** What about the “patients achieving DAS28-CRP≦3.2” value [2, 5] of the same molecule?
**A.** 22%

**Q.** And the “patients achieving EULAR 'Good-Responses'” value [2, 5]?
**A.** 19%

**Q.** What about the “patients achieving ACR20 responses” value ([2]; high gonadotropin patients, by day 5, placebo 19%) of the same molecule?
**A.** 44%

**Q.** And the “DAS28-CRP change by day 5” value ([2]; high gonadotropin patients, cetrorelix N=27, 95% CI −1.3 to −0.67, placebo −0.40)?
**A.** −1.0

**Q.** And the “DAS28-CRP baseline-adjusted between-group difference” value ([2]; high gonadotropin patients, day 5, 95% CI 0.13 to 0.93, P=0.010)?
**A.** 0.53

**Q.** What about the “ACR50 and ACR70 responses compared with placebo” value ([2]; high gonadotropin patients, numbers too small for valid conclusions) of the same molecule?
**A.** More patients reached ACR50 and ACR70 responses

**Q.** What about the “DAS28-CRP reduction, prednisolone users (N=13) vs non-users (N=14)” value ([2]; patients who received cetrorelix, P=0.73) of the same molecule?
**A.** similar

**Q.** What about the “LH and FSH levels” value ([3]; all patients allocated to cetrorelix, onset) of the same molecule?
**A.** reduced as early as day 2

**Q.** What about the “Cortisol changes between groups” value ([3]; all patients, by day 5, p 0.80) of the same molecule?
**A.** not significantly different between groups

**Q.** And the “Adverse events: Headache” value ([4]; N = 27)?
**A.** 2 (7.4) no. %

**Q.** What about the “Adverse events: Injection site discomfort” value ([4]; N = 27) of the same molecule?
**A.** 2 (7.4) no. %

**Q.** And the “Adverse events: Nausea” value ([4]; N = 27)?
**A.** 0 no. %

**Q.** What about the Adverse events severity ([4]; high gonadotropin patients) of the same molecule?
**A.** mild
